Consider 21 compounds from US11981752B2, “Tumor associated monocyte/macrophage binding peptide and methods of use thereof” (Sanford Burnham Prebys Medical Discovery Institute, priority 2017, dated 2024).

For data set [1], the system named is J774A.1 cells. Nature of the data set: In vitro peptide binding, flow cytometry, J774A.1. Type of data set: cell-based, mouse. The protocol: (§1) J774A.1 and RAW264.7 cells were obtained from ATCC. Cells were maintained in Dulbecco's Modified Eagle Medium supplemented with 10% fetal bovine serum, 1% Glutamine-Pen-Strep and […].
(§2) Cells were incubated on a rotator with peptides added at a final concentration of 10 μM in DMEM plus 1% BSA. For inhibition studies, biotin-CRV was added to a final concentration of 500 μM together with FAM-CRV (10 μM final). After 1 h at 4° C., cells were washed 3 times with PBS followed by flow cytometry analysis.
(§3) The peptide corresponding to the sequence of the top clone: […] (referred to as CRV herein; SEQ ID NO:1) was then synthesized. A green carboxy-fluorescein label (FAM) was added to the N-terminus of CRV to aid detection. CRV binding to two macrophage cell lines, J774A.1 and Raw264.7 was tested. Control peptides used were ARA ([…]; SEQ ID NO:8) and […] (SEQ ID NO:9).

The subject of data set [2] is cells isolated from 4T1 tumors. Nature of the data set: Ex vivo binding of FAM-CRV to cells isolated from 4T1 tumors. The settings on record: FAM-CRV 10 μM, 1-hour at 4° C., flow cytometry. Type of data set: cell-based, mice. On the procedure:
To determine the identity of the cells that FAM-CRV localized in within the tumors, ex vivo binding of FAM-CRV to cells isolated from tumors was studied. Tumors were excised from mice bearing 4T1 breast cancer and dissociated into single cell populations using MACS dissociation kit according to the manufacturer's instructions. FAM-CRV was added to a final concentration of 10 μM into a solution of DMEM+1% BSA containing 2 million tumor cells. After 1-hour incubation at 4° C., cells were stained with various immune cell markers. The markers tested include: CD11b (pan-monocyte/macrophage marker), Ly6-G (granulocytic monocyte), CCR2 (infiltrating monocytes), F4/80, CD4 (helper T cells), CD8 (cytotoxic T cells). Cells were stained for the indicated markers and subjected to flow cytometry analysis. The analysis was performed using antibodies to the indicated macrophage markers on CRV-positive cells.
(In general: A flow cytometer gives signals particle by particle.)

Data set [3] relates to macrophages in sites of infection. The data set is described as follows: Targeting of macrophages in sites of infection. Conditions: microbial, viral, or bacterial infection; no method given. It is filed as in vivo.
The next data set concerns 4T1 breast tumors. The data set is described as follows: In vivo peptide homing in mice bearing orthotopic 4T1 breast tumors. Conditions: 1 hour. On the procedure: (§4) To produce 4T1 tumors, 1×10^6 4 T1 cells (ATCC) suspended in 100 μl of PBS were injected into the mammary fat pad of wild type Balb/c female mice. C57BL/6 mice bearing atherosclerosis plaques were generated as previously described (She et al., Journal of Controlled Release 238:212-20 (2016)). Animal experimentation was performed according to the procedures approved by the Animal Research Committee at the Sanford-Burnham Medical Research Institute.
(§5) Orthotopic 4T1 tumors were used when they reached 0.5-1 cm in size. For tumor or plaque homing, 200 μg FAM-labeled peptide dissolved in 100 μl PBS was injected intravenously into mice. After 1 hour of circulation, the mice were euthanized by cardiac perfusion with PBS under anesthesia, and tumors and other organs (or plaques on the aorta) were dissected and analyzed for peptide homing.
In vivo tissue distribution of CRV peptide in tumor mice was investigated. FAM-CRV was injected intravenously into mice bearing 4T1 breast tumors. After 1 hour, perfusion through the heart was performed to eliminate any circulating peptide. Heart, lung, liver, kidney, spleen, and tumor were excised and the FAM-CRV signal was imaged with an illuminator.
CRV homing in tumor mice was investigated. Mice with orthotopic 4T1 breast tumors (n=2) were intravenously injected with 100 μg of CRV peptide labeled with a green fluorophor (FAM). The peptide was allowed to circulate for 1 hour, and the mice were perfused through the left ventricle of the heart to eliminate any peptide remaining in the blood. Major organs were excised and examined under visible and fluorescent light.

For data set [4], the system named is macrophages in atherosclerosis plaques. Nature of the data set: In vivo homing to atherosclerosis plaques. More on the design: species or system mice. Conditions: 200 μg FAM-labeled peptide intravenously, 1 hour of circulation. On the procedure: as §4, §5
Therefore, whether CRV also binds to macrophages in this model was investigated. 200 μg FAM-labeled peptide or control peptide ARA, each dissolved in 100 μl PBS, was injected intravenously into mice. After 1 hour of circulation, the mice were euthanized by cardiac perfusion with PBS under anesthesia, and tumors and other organs (or plaques on the aorta) were dissected and imaged with illuminator for FAM signal.

A further data set has as its system Raw264.7 cells. The data set is described as follows: In vitro peptide binding, flow cytometry, Raw264.7. Type of data set: cell-based. Conditions: FAM-labeled peptide 10 μM, 1 h at 4° C., controls ARA, GGSGGSKG
On the procedure: as §1, §2, §3

Data set [5] concerns J774A.1 cells. The data set is described as follows: Phage display screening (CX7C T7 library) on J774A.1 cells. Conditions: high throughput sequencing of phage clones bound to J774A.1 cells after three rounds of enrichment; terminal cysteines omitted.
For data set [6], the system named is other kinases (named per endpoint). Conditions: cited from earlier work.
The target in another data set is PI3Kδ (Homo sapiens, UniProt O00329). Conditions: cited from earlier work.
PI3Kδ, sequence (O00329 whole entry, species assumed): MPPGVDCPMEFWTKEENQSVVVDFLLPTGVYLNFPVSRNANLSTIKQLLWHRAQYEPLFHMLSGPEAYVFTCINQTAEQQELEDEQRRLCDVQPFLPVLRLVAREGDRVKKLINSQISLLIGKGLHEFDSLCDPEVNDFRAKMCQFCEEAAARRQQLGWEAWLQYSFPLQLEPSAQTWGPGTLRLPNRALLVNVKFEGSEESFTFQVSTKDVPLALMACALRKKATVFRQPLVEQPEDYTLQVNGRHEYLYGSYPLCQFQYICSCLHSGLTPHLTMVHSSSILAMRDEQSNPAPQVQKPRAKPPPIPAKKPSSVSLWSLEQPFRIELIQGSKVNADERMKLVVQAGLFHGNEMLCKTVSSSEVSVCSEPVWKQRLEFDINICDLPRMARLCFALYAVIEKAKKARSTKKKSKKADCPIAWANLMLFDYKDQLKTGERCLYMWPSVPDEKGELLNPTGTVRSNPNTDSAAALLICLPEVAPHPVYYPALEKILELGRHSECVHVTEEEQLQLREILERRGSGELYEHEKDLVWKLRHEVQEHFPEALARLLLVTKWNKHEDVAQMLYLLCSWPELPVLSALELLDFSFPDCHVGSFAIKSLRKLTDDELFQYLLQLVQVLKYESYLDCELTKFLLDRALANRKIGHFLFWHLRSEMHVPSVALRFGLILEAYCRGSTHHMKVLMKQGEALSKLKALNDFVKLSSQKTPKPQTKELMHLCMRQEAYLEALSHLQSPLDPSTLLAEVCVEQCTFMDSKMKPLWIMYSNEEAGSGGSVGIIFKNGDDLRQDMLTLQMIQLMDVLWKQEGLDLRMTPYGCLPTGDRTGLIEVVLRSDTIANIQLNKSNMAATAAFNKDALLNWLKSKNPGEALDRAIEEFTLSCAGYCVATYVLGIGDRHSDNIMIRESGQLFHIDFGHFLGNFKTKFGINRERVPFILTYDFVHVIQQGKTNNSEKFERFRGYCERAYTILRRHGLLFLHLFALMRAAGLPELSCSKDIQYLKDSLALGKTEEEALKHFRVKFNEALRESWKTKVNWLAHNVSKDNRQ
PI3Kδ, sequence (P27986 whole entry partner, species assumed): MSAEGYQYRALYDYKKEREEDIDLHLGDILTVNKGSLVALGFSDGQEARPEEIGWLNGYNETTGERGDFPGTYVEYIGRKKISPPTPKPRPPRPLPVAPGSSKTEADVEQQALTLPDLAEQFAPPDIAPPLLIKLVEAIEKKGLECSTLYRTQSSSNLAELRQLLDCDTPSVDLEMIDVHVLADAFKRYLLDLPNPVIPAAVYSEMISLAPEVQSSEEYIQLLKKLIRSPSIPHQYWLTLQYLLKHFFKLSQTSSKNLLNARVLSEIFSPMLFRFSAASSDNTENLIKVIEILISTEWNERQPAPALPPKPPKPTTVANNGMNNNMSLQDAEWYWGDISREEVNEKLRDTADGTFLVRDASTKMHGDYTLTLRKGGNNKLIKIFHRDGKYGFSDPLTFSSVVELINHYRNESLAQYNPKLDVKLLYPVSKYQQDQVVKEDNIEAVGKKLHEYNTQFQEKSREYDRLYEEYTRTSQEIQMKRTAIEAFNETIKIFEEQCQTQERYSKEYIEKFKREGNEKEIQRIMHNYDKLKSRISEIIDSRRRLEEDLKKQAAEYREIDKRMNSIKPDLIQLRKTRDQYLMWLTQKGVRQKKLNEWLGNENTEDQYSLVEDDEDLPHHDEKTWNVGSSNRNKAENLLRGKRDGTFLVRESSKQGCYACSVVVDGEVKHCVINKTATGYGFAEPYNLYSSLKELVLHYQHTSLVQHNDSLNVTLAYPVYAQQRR
The target of the next data set is mTOR (Homo sapiens, UniProt P42345). The settings on record: cited from earlier work.
The target in a further data set is PI3Kβ (Homo sapiens, UniProt P42338). Conditions: cited from earlier work.
PI3Kβ, sequence (P42338 whole entry, species assumed): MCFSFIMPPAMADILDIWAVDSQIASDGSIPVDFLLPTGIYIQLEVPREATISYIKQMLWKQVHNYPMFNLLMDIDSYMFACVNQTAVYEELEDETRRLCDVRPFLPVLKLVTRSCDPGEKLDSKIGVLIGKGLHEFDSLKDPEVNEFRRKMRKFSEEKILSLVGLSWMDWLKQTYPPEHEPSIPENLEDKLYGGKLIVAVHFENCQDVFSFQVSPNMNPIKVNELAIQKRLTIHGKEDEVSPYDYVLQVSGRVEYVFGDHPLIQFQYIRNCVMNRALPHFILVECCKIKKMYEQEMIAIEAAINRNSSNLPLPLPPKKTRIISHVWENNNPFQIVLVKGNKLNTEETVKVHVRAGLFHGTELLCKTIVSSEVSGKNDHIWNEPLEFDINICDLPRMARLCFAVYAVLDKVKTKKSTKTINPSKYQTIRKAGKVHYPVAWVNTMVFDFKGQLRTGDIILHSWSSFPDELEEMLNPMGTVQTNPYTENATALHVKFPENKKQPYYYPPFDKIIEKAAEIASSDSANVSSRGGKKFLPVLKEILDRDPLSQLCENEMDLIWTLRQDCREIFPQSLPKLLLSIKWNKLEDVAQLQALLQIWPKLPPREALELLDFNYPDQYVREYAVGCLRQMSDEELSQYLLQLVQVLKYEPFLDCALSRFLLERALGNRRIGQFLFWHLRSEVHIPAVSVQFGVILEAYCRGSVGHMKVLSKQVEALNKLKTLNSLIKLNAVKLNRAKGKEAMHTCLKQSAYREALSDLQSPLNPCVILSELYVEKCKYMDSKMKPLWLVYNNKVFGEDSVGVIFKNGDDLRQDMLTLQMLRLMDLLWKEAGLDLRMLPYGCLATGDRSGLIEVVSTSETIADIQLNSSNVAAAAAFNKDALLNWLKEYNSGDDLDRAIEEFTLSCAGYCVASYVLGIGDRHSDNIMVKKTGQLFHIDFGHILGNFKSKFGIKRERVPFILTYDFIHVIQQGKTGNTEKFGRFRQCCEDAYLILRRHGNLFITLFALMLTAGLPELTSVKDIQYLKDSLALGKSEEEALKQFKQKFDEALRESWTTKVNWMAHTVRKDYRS
PI3Kβ, sequence (P27986 whole entry partner, species assumed): as the sequence (P27986 whole entry partner, species assumed) above
A further data set concerns the target ATR (Homo sapiens, UniProt Q13535). Conditions: cited from earlier work.
For another data set, the target named is PI3Kγ (Homo sapiens, UniProt P48736). The settings on record: cited from earlier work.
PI3Kγ, sequence (P48736 whole entry, species assumed, canonical isoform): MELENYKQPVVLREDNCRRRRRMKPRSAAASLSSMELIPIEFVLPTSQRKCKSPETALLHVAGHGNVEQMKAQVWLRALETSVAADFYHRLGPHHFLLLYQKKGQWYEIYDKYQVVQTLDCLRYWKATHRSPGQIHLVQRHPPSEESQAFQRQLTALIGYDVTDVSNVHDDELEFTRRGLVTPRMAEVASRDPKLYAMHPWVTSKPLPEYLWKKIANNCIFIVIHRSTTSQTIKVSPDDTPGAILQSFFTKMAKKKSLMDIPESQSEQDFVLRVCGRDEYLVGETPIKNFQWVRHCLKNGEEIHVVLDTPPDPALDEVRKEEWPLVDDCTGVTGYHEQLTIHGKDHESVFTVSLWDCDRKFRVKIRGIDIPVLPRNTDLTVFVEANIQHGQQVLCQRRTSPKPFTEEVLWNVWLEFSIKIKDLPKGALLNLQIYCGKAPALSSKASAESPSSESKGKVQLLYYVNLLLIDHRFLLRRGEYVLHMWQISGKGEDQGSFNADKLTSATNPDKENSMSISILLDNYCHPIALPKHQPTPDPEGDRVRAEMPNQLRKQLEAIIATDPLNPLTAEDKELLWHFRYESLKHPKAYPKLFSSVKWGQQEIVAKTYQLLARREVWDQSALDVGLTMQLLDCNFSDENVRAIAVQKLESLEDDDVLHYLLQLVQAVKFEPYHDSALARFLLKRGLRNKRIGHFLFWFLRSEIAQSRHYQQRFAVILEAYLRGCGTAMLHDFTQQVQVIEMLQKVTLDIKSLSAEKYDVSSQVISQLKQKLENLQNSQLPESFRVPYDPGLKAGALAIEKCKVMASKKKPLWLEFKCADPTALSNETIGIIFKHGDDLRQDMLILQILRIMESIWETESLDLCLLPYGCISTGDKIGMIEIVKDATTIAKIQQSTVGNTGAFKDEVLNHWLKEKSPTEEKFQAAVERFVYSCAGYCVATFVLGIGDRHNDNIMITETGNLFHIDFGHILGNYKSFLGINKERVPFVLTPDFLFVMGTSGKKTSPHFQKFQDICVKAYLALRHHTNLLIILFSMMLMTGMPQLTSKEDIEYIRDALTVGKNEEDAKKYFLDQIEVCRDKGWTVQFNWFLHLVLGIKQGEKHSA
The test system of the next data set is class I PI3K isoforms. Conditions: cited from earlier work.
For a further data set, the system named is tumor. The settings on record: systemic treatment of mice; cited from earlier work.
For data set [7], the system named is macrophages in atherosclerosis plaques. The settings on record: ApoE null mice fed high fat diet (She et al. 2016); cited from earlier work.
A further data set has as its system atherosclerotic plaque. Conditions: systemic treatment of mice; cited from earlier work.
A further data set concerns the target DNA-PK (Homo sapiens, UniProt P78527). The settings on record: cited from earlier work.

“Also recorded” adds a separate entry of the source. Read-outs that look alike come from different tables or passages of the source. Bridge positions count the residues as written; N and C are the ends. Ends that are not written are not given here. A value given as a limit tells only on which side of the number the result lay.

On to “CRVLRSGSC (disulfide 1-9 (inferred); also: FAM or biotin label) [TAM-homing peptide; tested with N-terminal FAM label (FAM-CRV) or biotin label (biotin-CRV)]”, for which the “binding to J774A.1 cells versus control peptides” value with J774A.1 cells [1] (FAM-labeled peptide 10 μM, 1 h at 4° C., flow cytometry, controls ARA, GGSGGSKG) is reported as “higher binding”. The “effect of excess biotin-labeled CRV on binding of FAM-CRV to J774A.1 cells” value with J774A.1 cells [1] (biotin-CRV 500 μM (50-fold excess), FAM-CRV 10 μM) was “inhibited the binding”. In addition, in data set [2], the “binding to different subtypes of CD11b+ cells (CD11b+Ly-6G+ vs. CD11b+Ly-6G-)” value is “binds equally well” and the “share of CRV-positive cells that are CD11b+ cells” value is given as approximately 80%. Also, the “ability of the host to clear the infection” value in data set [3] is recorded as “markedly increased ability of the host to clear the infection”. Moreover, the “localization in tumor sections (fluorescence microscopy)” value in the data set on 4T1 breast tumors (100 μg FAM-labeled peptide intravenously) is “lack of co-localization of CRV with the blood vessel marker CD31; also recorded: entered into the extravascular compartment of the tumor; also recorded: Partial co-localization of CRV with the macrophage marker F4/80; also recorded: localizes in a CD45 leukocyte-rich tumor area; also recorded: co-localizes with macrophages having the macrophage markers F4/80 and with lymphatic vessels in tumors”. Also, the “organ fluorescence after injection of FAM-labeled peptide” value in the data set on 4T1 breast tumors (100 μg intravenously, perfusion, n=2) is reported as “tumors were positive for peptide fluorescence; also recorded: Some fluorescence was seen in one lung; also recorded: kidneys were positive; also recorded: preferentially homes to tumors”. Moreover, the “in vivo tissue distribution (FAM signal of excised organs)” value with 4T1 breast tumors (FAM-CRV intravenously, perfusion, heart, lung, liver, kidney, spleen, tumor) is “mainly found in the tumors and the kidneys, with trace amounts or none in the liver, spleen, lungs and heart”. Moreover, the “homing to atherosclerosis plaques” value in [4] is on record as “does not home to plaques; also recorded: recognizes macrophages in tumors but not in atherosclerotic plaques”. Moreover, in the data set on Raw264.7 cells, the “binding to Raw264.7 cells versus control peptides” value was “higher binding”.

Take GGRVLRS: the Count in the data set with J774A.1 cells [5] was determined as 62028.

In the case of `COc1ccc(-c2cc3c(C)nc(N)nc3n([C@H]3CC[C@H](OCCO)CC3)c2=O)cn1` [PF-04691502], in [6], the “activity against Vps34, AKT, PDK1, p7056K, MEK, ERK, p38, or JNK” value was “nM, little activity against either Vps34, AKT,”.

With `Fc1ccc2[nH]ccc2c1-c1nc(N2CCOCC2)c2sc(CN3CCN(CC4CC4)CC3)cc2n1` [PI-3065], the selectivity ratio on PI3Kδ was more than 70.

For the compound `CCn1nnc2c(N3CCOCC3)nc(-c3ccc(NC(=O)Nc4ccc(C(=O)N5CCN(C)CC5)cc4)cc3)nc21` [PKI-402], the IC50 on mTOR is 3 nM; on PI3Kβ, 7 nM.

RVLRSGS yielded a Count in the data set on J774A.1 cells [5] of 63428.

In turn, SVAYD displayed a Count in the data set on J774A.1 cells [5] of 10187.

Take GGASIT: the Count in the data set with J774A.1 cells [5] stood at 8677.

Regarding `Cn1c(=O)n(-c2ccc(C(C)(C)C#N)cc2)c2c3cc(-c4cnc5ccccc5c4)ccc3ncc21` [BEZ235, Dactolisib], the “inhibition of Akt and PDK1” value in data set [6] is “be a poor inhibitor to Akt and PDK1. Phase 2”. Besides, at ATR, the IC50 was 21 nM.

The compound GRLLRSG came in with a Count in the data set with J774A.1 cells [5] of 9124.

As to `CCn1c(=O)c(-c2cc[nH]n2)cc2c(C)nc(N)nc21` [SAR245409], the “inhibition of DNA-PK and mTOR” value in data set [6] is “also inhibits DNA-PK and mTOR. Phase 1/2”.

`Cc1ccccc1-n1c(Cn2ncc3c(N)ncnc32)nc2cccc(C)c2c1=O` [PIK-293]: the results for the IC50 at PI3Kγ and at PI3Kδ were 10000 nM and 240 nM, respectively.

With `O=c1c(O)c(-c2ccc(O)c(O)c2)oc2cc(O)cc(O)c12` [Quercetin], the IC50 with class I PI3K isoforms (isoform not stated, read-out: PI3K IC50) was 2400 to 5400 nM.

For GRVLRSS, the Count with J774A.1 cells [5] is given as 6774.

For “CGNKRTRGC (also: cyclic, kind and places not given here) [LyP-1, receptor is cell surface protein p32]”, in the data set on tumor, the tumor growth result was “slows down tumor growth”. The “homing to / recognition of macrophages in atherosclerosis plaques” value in [7] was “homes to macrophages residing in atherosclerosis plaques; also recorded: recognizes macrophages both in tumors and atherosclerotic plaques”. Also, in the data set with atherosclerotic plaque, the atherosclerotic plaque result was “reduces atherosclerotic plaque”.

With GRMLRSG, the Count in the data set on J774A.1 cells [5] was found to be 8922.

As for `FC(F)c1nc2ccccc2n1-c1nc(N2CCOCC2)nc(N2CCOCC2)n1` [ZSTK474], the IC50 in the data set on class I PI3K isoforms (read-out: IC50 for PI3K isoforms stated together (PI3Kα/β/δ/γ; class I PI3K isoforms)) is 37 nM.

Compound SVGRSMRS came in with a Count in the data set with J774A.1 cells [5] of 7916.

Turning to `Cc1ccc([N+](=O)[O-])cc1S(=O)(=O)N(C)/N=C/c1cnc2ccc(Br)cn12` [PIK-75], the IC50 on DNA-PK was 2 nM; at PI3Kγ, 76 nM.

Regarding `O=C1NC(=O)C(=Cc2ccc(-c3ccc(F)cc3)o2)S1` (stereo in doubt) [CAY10505], on PI3Kγ, the IC50 is 33 nM.

As for RSGLRSS, in the data set on J774A.1 cells [5], the Count is 9519.
